Source: ChEMBL document CHEMBL1144379, “The development of monocyclic pyrazolone based cytokine synthesis inhibitors” (Bioorg Med Chem Lett, 2005)
In brackets after ≈: the same amount, converted by molar mass.

What was measured:
THP-1 = assay: Inhibitory activity against lipopolysaccharide stimulated TNF-alpha production in THP-1 cells (human monocytic cells); assay type: functional, cell-based
[1] = Bioavailability in rat; assay type: ADME, organism-based; settings: in vivo
[2] = Aqueous solubility […]; assay type: physicochemical, Rattus norvegicus; settings: aqueous medium
[3] = Metabolism measured as percent loss at 4 hours in rat hepatocytes; assay type: ADME, cell-based, Hepatocyte; settings: read-out: Metabolism
[4] = Half life in rats; assay type: ADME; settings: rat, in vivo
[5] = Inhibition of Mitogen-activated protein kinase p38 alpha

Row | Structure (SMILES) | IC50 (THP-1) [µM] | also measured
1 | C[C@H](Nc1nccc(-c2c(-c3ccc(F)cc3)c(=O)n(C3CCNCC3)n2C)n1)C(C)(C)O | 1.08 | 
2 | Cn1c(=O)c(-c2ccc(F)cc2)c(-c2ccnc(Oc3ccccc3)n2)n1C1CCNCC1 | 2.65 | 
3 | COC[C@H](C)Nc1nccc(-c2c(-c3ccc(F)cc3)c(=O)n(C)n2C)n1 | 1.43 | 
4 | C[C@H](Nc1nccc(-c2c(-c3ccc(F)cc3)c(=O)n(C)n2C)n1)c1ccccc1 | 0.013 | bioavailability [1]: 32%; solubility [2]: 0.123 mg/mL (≈ 305 µM); metabolised at 4 h [3]: 44%; half-life [4]: 1.1 h
5 | O=c1c(-c2ccc(F)cc2)c(-c2ccncc2)[nH]n1-c1ccc(Cl)cc1 | 4.22 | 
6 | Cn1c(-c2ccnc(Oc3ccccc3)n2)c(-c2ccc(F)cc2)c(=O)n1C1CCNCC1 | 1.81 | 
7 | C[C@H](Nc1nccc(-c2c(-c3ccc(F)cc3)c(=O)n(C3CCNCC3)n2C)n1)c1ccccc1.O=C(O)C(F)(F)F | 0.032 | bioavailability [1]: 17%; solubility [2]: 0.65 mg/mL; metabolised at 4 h [3]: 32%; half-life [4]: 3.2 h
8 | CCOCn1nc(-c2ccncc2)c(-c2ccc(F)cc2)n1 | 1.07 | IC50 [5]: 2.43 µM
9 | COC[C@@H](C)Nc1nccc(-c2c(-c3ccc(F)cc3)c(=O)n(C)n2C2CCNCC2)n1.O=C(O)C(F)(F)F | 0.075 | bioavailability [1]: 15%; solubility [2]: > 30 mg/mL; metabolised at 4 h [3]: 0%; half-life [4]: 2.2 h
10 | CCn1c(-c2ccnc(N[C@@H](C)c3ccccc3)n2)c(-c2ccc(F)cc2)c(=O)n1CC | 0.12 | 
11 | CC(=O)N1CCC(n2c(=O)c(-c3ccc(F)cc3)c(-c3ccnc(N[C@@H](C)c4ccccc4)n3)n2C)CC1 | 0.014 | 
12 | C[C@H](Nc1nccc(-c2c(-c3ccc(F)cc3)c(=O)n(C)n2C)n1)c1ccccn1 | 1.43 | 
13 | COCCn1c(-c2ccnc(N[C@@H](C)c3ccccc3)n2)c(-c2ccc(F)cc2)c(=O)n1C | 0.309 | solubility [2]: 0.429 mg/mL (≈ 959 µM); metabolised at 4 h [3]: 30%
14 | C[C@H](Nc1nccc(-c2c(-c3ccc(F)cc3)c(=O)n(C)n2C)n1)c1cccnc1 | 0.647 | 
15 | COCCn1c(-c2ccnc(Oc3ccccc3)n2)c(-c2ccc(F)cc2)c(=O)n1C | 1.43 | 
16 | CC[C@H](C)Nc1nccc(-c2c(-c3ccc(F)cc3)c(=O)n(C)n2C)n1 | 0.041 | 
17 | COC[C@H](C)Nc1nccc(-c2c(-c3ccc(F)cc3)c(=O)n(C3CCNCC3)n2C)n1 | 0.261 | 
18 | COCCn1c(-c2ccnc(N[C@H](C)COC)n2)c(-c2ccc(F)cc2)c(=O)n1C | 0.924 | 
19 | C[C@H](Nc1nccc(-c2c(-c3ccc(F)cc3)c(=O)n(C)n2C2CCNCC2)n1)c1ccccc1 | 0.155 | 
20 | C[C@H](Nc1nccc(-c2c(-c3ccc(F)cc3)c(=O)n(C)n2C)n1)c1ccncc1 | > 5 | 
21 | C[C@H](Nc1nccc(-c2c(-c3ccc(F)cc3)c(=O)n(C3CCN(C)CC3)n2C)n1)c1ccccc1 | 0.015 | 
22 | Cn1c(-c2ccnc(Oc3ccccc3)n2)c(-c2ccc(F)cc2)c(=O)n1C | 0.288 | 
23 | C[C@H](Nc1nccc(-c2c(-c3ccc(F)cc3)c(=O)n(C)n2C)n1)C(C)(C)O | 3.97 | 
